In patent publication US20130123386A1, “HINDERED PRIMARY CHLORINATED AMINE IN A LATEX FORMULATION” (ROHM AND HAAS COMPANY, priority 2011, published 2013):

What was measured:
[1] = system: standard industrial inoculum; assay: Preservative efficacy (challenge) testing of latex binder samples, growth rating of streaked TSA plates; type: cell-based
Experimental: The samples prepared in accordance with Examples 1-4 and Comparative Example 1 were subjected to preservative efficacy testing in accordance with the following procedure:
A 1-g aliquot was removed from each sample and submitted for biocide analysis by a standard HPLC procedure to check the amount of isothiazolone microbicide dosed. The samples were then dosed with the standard industrial inoculum at a level of 0.1 mL/10 g.
All bacteria and yeast were stored at −70° C. to −80° C. in broth and glycerol (15%) prior to inoculum preparation. Molds were maintained on potato dextrose agar (PDA) plates at 2-5° C. The bacteria and yeast cultures were thawed and 0.1-mL aliquots of each were transferred into separate 10-mL aliquots of tryptic soy broth (TSB). These cultures were incubated at 30° C. for 18-24 h, with shaking at 150-200 rpm.
A volume of 10 mL of sterile phosphate buffer was measured out. The two mold strains were added by wetting sterile swabs in phosphate buffer, or water, and then rolling the swabs over the molds, covering an area of approximately 1 in^2 on each plate. The mold-covered swabs were then immersed in the 10 mL of phosphate buffer and agitated to suspend the spores. A volume of 0.1 mL of each bacterial culture, and a volume of 1 mL of each yeast culture, was then added to the mold mixture. The inoculum was blended by vortexing briefly. The organisms used in the inoculum and their corresponding American Type Culture Collection numbers (ATCC #) are shown in Table 1.
Samples were inverted several times to mix in the microorganisms. This inoculation challenged each test sample with 10^6-10^7 colony forming units/mL latex. Using a 10-μL sterile loop, latex samples were streaked onto tryptic soy agar (TSA) plates. This procedure was carried at t=0 and at several other time points during the first ˜5 h of the experiment to obtain speed-of-kill data. Additional time points were taken at t=1, 2 and 7 days. Between time points, all samples were stored at 30° C. In addition, all streaked TSA plates were incubated at 30° C. […]

[2] = Heat aging of amine/latex binder preparation at 50° C. for 14 days, concentration by GC; type: physicochemical; details: latex binder
Experimental: A 20.0-g dispersion of N-chloro-2,4,4-trimethylpentan-2-amine, 18% sodium lauryl sulfate, and water (C1-TOA, 0.47 g; SLS, 1.29 g; H2O, 18.24.g) with a particle size in the range of 100 to 850 nm was added to a butyl acrylate/methyl methacrylate/methacrylic acid latex binder (180 g; 50/49/1 percentages by weight) stabilized by SLS (1 weight percent) and Disponil FES 32 emulsifier (1 weight percent). The Cl-TOA/binder preparation was heat aged at 50° C. for 14 days. The concentration of Cl-TOA prior to the heat aging step was 2350 ppm (14 mM). The concentration of Cl-TOA after the heat-aging step was measured by GC to be ˜160 ppm based on the volume of the binder.
The procedures were carried out substantially as described for Example 1 except that, after heat-aging, a diluted sample of KATHON™ LX Microbicide Concentrate (A Trademark of The Dow Chemical Company or Its Affiliates) was mixed in with the binder/Cl-TOA preparation by shaking the samples at 200 rpm for 20 min, giving a final dosage of ˜5 ppm active. The concentration of Cl-TOA after the heat-aging step was measured by GC to be ˜160 ppm based on the volume of the binder.
The procedure of Example 2 was repeated except that the constituents of the added dispersion were Cl-TOA (0.19 g), SLS (0.52 g), and water (19.29 g). The concentration of Cl-TOA after the heat-aging step was estimated to be ˜65 ppm based on the volume of the binder.
(TOA, 0.38 g; SLS, 1.06 g; H2O, 18.56 g) with a particle size in the range of 100 to 850 nm was added to a butyl acrylate/methyl methacrylate/methacrylic acid latex binder (180 g; 50/49/1 percentages by weight) stabilized by SLS (1 weight percent) and Disponil FES 32 emulsifier (1 weight percent). The TOA/binder preparation was heat aged at 50° C. for 14 days. The concentration of TOA before heat aging was 1900 ppm (14 mM), and GC measurements indicated no change in TOA concentration as a result of heat aging. […]

Row | SMILES | Efficacy as a quick-kill preservative ([1]; alone or in combination with the KATHON LX Microbicide, heat-aged latex binder) | Concentration of Cl-TOA after the heat-aging step (estimated) ([2]; 940 ppm (6 mM) before heat aging, estimated, based on the volume of the binder (Example 3)) | Concentration of Cl-TOA after the heat-aging step ([2]; 2350 ppm (14 mM) before heat aging, measured by GC, based on the volume of the binder (Examples 1 and 2)) | Biocidal activity ([1]; TOA itself) | Effect as an adjuvant for the biocide ([1]; with KATHON LX, compared to the microbiocide alone (Comp. Ex. 1)) | Change in TOA concentration as a result of heat aging ([2]; 1900 ppm (14 mM) before heat aging, GC (Example 4))
1 | CC(C)(C)CC(C)(C)NCl [Cl-TOA, N-chloro-2,4,4-trimethylpentan-2-amine] | effective | ~65 ppm | ~160 ppm | – | – | –
2 | CC(C)(C)CC(C)(C)N [TOA, 2,4,4-trimethylpentan-2-amine] | – | – | – | little or no biocidal activity | effective as an adjuvant | no change
